Laboratory results reported in patent US6486173B2, “5-HT7 receptor antagonists” (Bristol-Myers Squibb Pharma Company, priority 1998, dated 2002).

tested on: not given; details: not given

Compound	melting point
Fc1ccc(C2(CCCN3Cc4ccccc4C3)OCCO2)cc1.O=C(O)/C=C\C(=O)O	141 to 142 °C
O=C(O)/C=C\C(=O)O.OC(CCCN1Cc2ccccc2C1)c1ccc(F)cc1 (stereo not drawn)	113 to 114 °C
Cl.O=S(=O)(CCCN1CCc2ccccc2C1)c1ccc(F)cc1	212 to 215 °C
O=C(O)/C=C\C(=O)O.O=S(=O)(CCCN1Cc2ccccc2C1)c1ccc(F)cc1	151 to 152 °C
O=C(CCCN1Cc2cccc3cccc(c23)C1)c1ccc(F)cc1.O=C(O)/C=C\C(=O)O	151 to 155 °C
Fc1ccc(C2(CCCN3CCc4ccccc4C3)OCCO2)cc1.O=C(O)/C=C\C(=O)O	160 to 162 °C
Cc1ccc(C2(CCCN3Cc4ccccc4C3)OCCO2)cc1.O=C(O)/C=C\C(=O)O	159 to 161 °C (dec.)
Cl.O=S(=O)(c1ccc(F)cc1)N1CCC(N2CCc3ccccc3C2)CC1	> 240 °C
Cl.Fc1ccc(SCCCN2CCc3ccccc3C2)cc1	171 to 173 °C
Cl.Fc1ccc(SCCCN2Cc3ccccc3C2)cc1	125 to 126 °C
O=C(CCCN1CCc2ccccc2C1)c1ccc(F)cc1.O=C(O)/C=C\C(=O)O	129 to 130 °C
Fc1ccc(OCCCN2Cc3ccccc3C2)cc1.O=C(O)/C=C\C(=O)O	115 to 117 °C
Fc1ccc(C2=NOC(CN3CCc4ccccc4C3)C2)cc1.O=C(O)/C=C\C(=O)O (racemic)	153 to 155 °C
O=C(CCCN1CCc2ccccc2C1)c1ccncc1.O=C(O)/C=C\C(=O)O	108 to 109 °C
O=C(CCCN1Cc2cc3ccccc3cc2C1)c1ccc(F)cc1.O=C(O)/C=C\C(=O)O	157 to 158 °C
O=C(CCCN1CC[C@@H]2CCCC[C@H]2C1)c1ccc(F)cc1.O=C(O)/C=C\C(=O)O (racemic)	157 to 158 °C
COc1cc2c(cc1OC)CN(CCCC(=O)c1ccc(F)cc1)CC2.O=C(O)/C=C\C(=O)O	144 to 146 °C
O=C(O)/C=C\C(=O)O.O=c1[nH]c2ccccc2n1CCCN1CCc2ccccc2C1	153 to 154 °C
O=C(CCCN1CCc2ccccc2C1)c1cccs1.O=C(O)/C=C\C(=O)O	154 to 155 °C
O=C(O)/C=C\C(=O)O.c1ccc(-c2cc(CN3CCc4ccccc4C3)on2)cc1	190 to 192 °C

target: 5-HT7 receptor (Homo sapiens, UniProt P34969); details: background statement; profile consistent across species; cited from earlier work
Sequence (P34969 whole entry): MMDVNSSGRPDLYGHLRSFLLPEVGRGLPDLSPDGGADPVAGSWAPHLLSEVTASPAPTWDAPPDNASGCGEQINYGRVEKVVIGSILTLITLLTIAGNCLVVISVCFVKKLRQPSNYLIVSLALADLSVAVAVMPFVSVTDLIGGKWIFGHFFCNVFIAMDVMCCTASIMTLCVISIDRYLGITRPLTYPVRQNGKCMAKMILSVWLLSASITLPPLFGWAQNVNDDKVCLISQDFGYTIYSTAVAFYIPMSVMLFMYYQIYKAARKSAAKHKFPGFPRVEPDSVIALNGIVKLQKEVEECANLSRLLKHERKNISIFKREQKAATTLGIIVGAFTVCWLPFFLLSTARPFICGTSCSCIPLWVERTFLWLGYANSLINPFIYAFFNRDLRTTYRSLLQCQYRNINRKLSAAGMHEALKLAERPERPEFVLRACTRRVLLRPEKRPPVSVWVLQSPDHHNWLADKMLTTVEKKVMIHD

Compound	5-HT7 receptor affinity
O=C1CC2(CCCC2)CC(=O)N1CCCCN1CCN(c2ncccn2)CC1 [buspirone]	low affinity
CNS(=O)(=O)Cc1ccc2[nH]cc(CCN(C)C)c2c1 [sumatriptan]	low affinity
5-HT [Example 5-HT]	high 5-HT7 receptor affinity
Cc1nc2sccn2c(=O)c1CCN1CCC(=C(c2ccc(F)cc2)c2ccc(F)cc2)CC1 [ritanserin]	moderate affinity

same assay, conditions: cited from earlier work

Compound	5-HT7 receptor affinity
CCCN(CCC)C1CCc2cccc(O)c2C1 (stereo not drawn) [Example 8-OHDPAT, 8-OHDPAT]	moderate affinity
CC(C)NCC(O)COc1cccc2[nH]ccc12 (stereo not drawn) [pindolol]	low affinity
COc1ccc2[nH]cc(CCN)c2c1 [Example 5-MeOT, 5-MeOT]	high 5-HT7 receptor affinity
